Laboratory results published in patent US12138262B2, “Process of manufacture of a compound for inhibiting the activity of SHP2, as well as products resulting from acid addition” (Novartis AG, priority 2018, dated 2024).

What was measured:
Format in all cases: physicochemical
[1] = Excipient compatibility: degradation in experimental excipient mixtures at 50° C./75% RH
[2] = Form conversion in aqueous organic solvent mixtures; details: aqueous organic solvent mixtures with very small quantities of water (1-2%)
[3] = Dynamic vapor sorption / water content versus relative humidity; details: 10% RH to 50% RH at room temperature
Experimental: DVS/Dynamic Vapor Sorption) data were obtained as follows: Dynamic vapor sorption was performed using a SMS Advantage system. Approximately 10 mg of sample was subjected to varying humidities between 0% RH and 95% RH at 25° C. Evaluation was performed using the system software.

In the case of `C[C@@H]1OCC2(CCN(c3cnc(Sc4ccnc(N)c4Cl)c(N)n3)CC2)[C@@H]1N` [Example 13, (3S,4S)-8-(6-amino-5-((2-amino-3-chloropyridin-4-yl)thio)pyrazin-2-yl)-3-methyl-2-oxa-8-azaspiro[4.5]decan-4-amine free base Modification A], the “degradation with excipient mixture containing HPMC” value ([1]; mixture containing HPMC (Mixture 2)) is reported as “strong degradation”.

For `C[C@@H]1OCC2(CCN(c3cnc(Sc4ccnc(N)c4Cl)c(N)n3)CC2)[C@@H]1N.O=C(O)CCC(=O)O` [Example 11, (3S,4S)-8-(6-amino-5-((2-amino-3-chloropyridin-4-yl)thio)pyrazin-2-yl)-3-methyl-2-oxa-8-azaspiro[4.5]decan-4-amine, succinate (1:1), anhydrous form, Modification A], the “conversion of solid form” value [2] was “rapidly converted into Modification HA”.

With `C[C@@H]1OCC2(CCN(c3cnc(Sc4ccnc(N)c4Cl)c(N)n3)CC2)[C@@H]1N.C[C@@H]1OCC2(CCN(c3cnc(Sc4ccnc(N)c4Cl)c(N)n3)CC2)[C@@H]1N.O.O=C(O)CCC(=O)O.O=C(O)CCC(=O)O` [Example 6, (3S,4S)-8-(6-amino-5-((2-amino-3-chloropyridin-4-yl)thio)pyrazin-2-yl)-3-methyl-2-oxa-8-azaspiro[4.5]decan-4-amine, succinate (1:1) hemihydrate, modification (form) HA] the “degradation levels in excipient mixtures” value ([1]; all four experimental excipient mixtures (Mixtures 1-4)) was “acceptable degradation levels” and the “water content over 10% RH to 50% RH” value [3] was “constant water content”.

In the case of `C[C@@H]1OCC2(CCN(c3cnc(Sc4ccnc(N)c4Cl)c(N)n3)CC2)[C@@H]1N.O=C(O)CCCCC(=O)O` [Example 10, (3S,4S)-8-(6-amino-5-((2-amino-3-chloropyridin-4-yl)thio)pyrazin-2-yl)-3-methyl-2-oxa-8-azaspiro[4.5]decan-4-amine adipate (1:1), Modification A], the “degradation with mixture containing mannitol, Ac-di-Sol and microcrystalline cellulose” value ([1]; mixture containing mannitol, Ac-di-Sol and microcrystalline cellulose (Mixture 4)) is reported as “strong degradation”.
